Paper PMC4359714 (Naunyn-Schmiedeberg's Archives of Pharmacology, 2015)

Tests used:
CFA-injected rats = test: CFA-induced hypersensitivity (rearing on prickly floor); assay type: in vivo, rat; details: 100 mg/kg p.o.; p > 0.05 vs CFA vehicle ([…] s)
Procedure: Rats were habituated in a reversed light cycle room for at least 1 week and to the testing room for 1 h prior to dosing. […] Twenty-one hours after the CFA injection, animals were treated (p.o.) with vehicle (5 % Tween 80 in OraPlus®) or TRPM8 antagonist. Two hours after drug dosing (23 h after CFA injection), rats were placed in the same Kinder Scientific open field boxes as described above but with customized prickly floor inserts placed inside. Rearing time and rearing counts were measured for 60 min.

[1] = test system: TRPM8 on cutaneous nerve terminals (C fibers); test: Skin-nerve preparation, menthol-evoked activation of C fibers; set-up: species or system mouse; details: 10 μM; 300 μM menthol; n = 22; p = 0.005
Source text: Adult C57BL/6 mice were obtained from Jackson Laboratories and used for ex vivo skin-nerve preparations. Mice were allowed to acclimate to the animal facility at the Medical College of Wisconsin, an Association for the Assessment and Accreditation of Laboratory Animal […] (AALAC)-accredited facility, for approximately 1 week following shipment. Animals were housed with up to four other cagemates and had ad libitum access to food pellets and hyper-chlorinated water. Mice were housed on a 14:10 h light-dark cycle in cages containing aspen bedding and paper nesting material. Room temperatures averaged 21 °C. Prior to use, animals were briefly anesthetized with inhaled isoflurane and then sacrificed via cervical dislocation.
The mouse saphenous skin-nerve in vitro preparation (Koltzenburg et al. [1997]; Stucky et al. [1999]) was used for electrophysiological recordings of cutaneous terminals of primary afferent fibers in situ. […] Once a unit with a signal to noise ratio >2 was identified, the mechanical threshold was determined using calibrated von Frey filaments (range, 0.44–147.0 mN). […]
Wave forms of action potentials evoked by mechanical stimuli were saved on an oscilloscope for comparison of shape and profile. […] Action potentials were discriminated and counted off-line using a spike histogram software extension. […] All data was also analyzed in a blinded manner.

rats = test: Open field activity; assay type: in vivo, rat; details: 100 mg/kg, 2 h before; 60 min; not significantly different from vehicle (14,484 ± 1686 cm)
Procedure: Rats were habituated in a reversed light cycle room in home cages for at least 1 week and acclimated to the testing room for 1 h prior to dosing. TRPM8 antagonist (10, 30, or 100 mg/kg) or vehicle (5 % Tween 80 in OraPlus®) was injected 2 h before placing an animal in the open-field apparatus. Open-field activity was measured using a system that counts interruptions of a set of photobeams for the course of 60 min (Kinder Scientific, Poway, CA). To begin a session, animals were removed from the home cage and placed individually into an independent Plexiglas box (41 cm L × 41 cm W × 38 cm H) surrounded by a frame consisting of 32 photocells (16Y and 16X) that track the movement of the animal. Photobeam breaks were used as an indication of activity and were measured as the following parameters per minute: basic movements (beam breaks), distance traveled (cm), time spent (s), and number of repetitive beam breaks (i.e., stereotypic movement). Chlordiazepoxide, which consistently elicits a decrease in open field activity, was used as a positive control. Chlordiazepoxide was formulated in saline at 5.6 mg/kg i.p. and dosed 30 min before the start of the open field assay.

[2] = Pharmacokinetics in plasma and brain, male Sprague-Dawley rats; assay type: in vivo; details: male Sprague-Dawley rat
Procedure: Plasma pharmacokinetics of each compound in male Sprague-Dawley rats (n = 3 animals per study) were determined after intravenous dosing at 2 mg/kg in 100 % dimethylsulfoxide (DMSO) or after administration of 5 mg/kg by oral gavage with test article formulated in 5 % Tween 80 in OraPlus®. At designated time points, blood was collected via the femoral artery and processed for plasma by centrifugation. Plasma was then transferred into a 96-well container and stored in a freezer maintained at −70 °C. Similar bioanalytical methods were used to determine plasma and brain exposure in animals tested in pharmacodynamic and pain models. Brain samples were homogenized with a 4:1 ratio of water (mL) for every gram of brain tissue. […] Calibration standards were prepared from a 1 mg/mL stock solution of each compound in DMSO with a serial dilution into a blank matrix (plasma or brain homogenate). Liquid chromatography with tandem mass spectrometry was used for the quantitation of each compound in rat plasma and brain. Non-compartmental pharmacokinetic analysis of plasma concentrations was conducted using WinNonlin Enterprise v.5.1.1 (Pharsight Corporation, Mountain View, CA). Brain uptake was calculated as a ratio of concentration in whole brain tissue to that in plasma taken from the same animal at approximately the same time.

[3] = test system: cold pressor effect in rats; test: Cold-induced increase in blood pressure, cold pressor test (CPT); assay type: in vivo, rat; details: 10 mg/kg p.o.
Procedure: 2 h prior to anesthesia with sodium pentobarbital at 60 mg/kg i.p. Blood pressure was recorded for 5 min for “pre-cold baseline” and an additional 5 min during immersion of the paws and ventral half of the body in ice water. Mean blood pressure (MBP) was derived electronically using Digi-Med Blood Pressure Analyzer (Model 400). Plasma was collected through the artery catheter immediately after the cold pressor test for pharmacokinetic analysis. Percent increase from baseline and percent inhibition attributed to treatment with test compound were then determined using the following formula: (1) percent increase from baseline (mmHg) cold pressor effect = [(cold-evoked change in MBP)/MBP pre-cold] × 100; (2) percent inhibition of cold pressor effect = [1 − (cold-evoked change in MBP post-test compound/cold-evoked change in MBP post-vehicle)] × 100.

Compound: C[C@H](NC(=O)N1CCc2cccnc2[C@H]1c1ccc(C(F)(F)F)cc1)C(F)(F)F [AMG2850, (R)-8-(4-(trifluoromethyl)phenyl)-N-((S)-1,1,1-trifluoropropan-2-yl)-5,6-dihydro-1,7-naphthyridine-7(8H)-carboxamide]
- rearing time, CFA model (CFA-injected rats): 157 ± 25 s
- effect on menthol-evoked firing of C fibers [1]: completely inhibited all menthol-evoked firing
- total distance traveled, open field (rats): 13,640 ± 623 cm
- Oral bioavailability ([2]; 5 mg/kg oral gavage): 47%
- clearance ([2]; plasma, iv, i.v. 2 mg/kg): 7.83 mL/min/kg
- bioavailability ([2]; plasma, 5 mg/kg oral gavage): > 40%
- effect on cold pressor response [3]: fully blocked
